The source made the active and inactive calls. The calls are words filed in the database; no cut-off is given here.
Assays:
COLO 205 [1] = assay: Antitumor activity against human COLO 205 cells xenografted in athymic nude mouse model assessed as gross log cell kill at 15 mg/kg, ip administered twice daily in presence of gemcitabine (Gemcitabine alone = 0.27%); type: functional
COLO 205 [2] = assay: Antitumor activity against human COLO 205 cells xenografted in athymic nude mouse model assessed as gross log cell kill at 20 mg/kg, ip administered once daily in presence of gemcitabine (Gemcitabine alone = 0.5%); type: functional
COLO 205 [3] = assay: Antitumor activity against human COLO 205 cells xenografted in athymic nude mouse model assessed as gross log cell kill at 30 mg/kg, ip administered once daily in presence of gemcitabine (Gemcitabine alone = 0.27%); type: functional
HT-29 [4] = assay: Inhibition of gemcitabine induced cell cycle arrest in human HT-29 cells assessed as increase in G2-M cell population pretreated with gemcitabine followed by compound treatment and measured after 10 to 48 hrs by flow cytometry analysis; type: functional, cell-based; conditions: time 10-48 hrs
[5] = target: Macrophage colony-stimulating factor 1 receptor (Homo sapiens, UniProt P07333); assay: Inhibition of Fms (unknown origin)
Sequence of Macrophage colony-stimulating factor 1 receptor (P07333 whole entry): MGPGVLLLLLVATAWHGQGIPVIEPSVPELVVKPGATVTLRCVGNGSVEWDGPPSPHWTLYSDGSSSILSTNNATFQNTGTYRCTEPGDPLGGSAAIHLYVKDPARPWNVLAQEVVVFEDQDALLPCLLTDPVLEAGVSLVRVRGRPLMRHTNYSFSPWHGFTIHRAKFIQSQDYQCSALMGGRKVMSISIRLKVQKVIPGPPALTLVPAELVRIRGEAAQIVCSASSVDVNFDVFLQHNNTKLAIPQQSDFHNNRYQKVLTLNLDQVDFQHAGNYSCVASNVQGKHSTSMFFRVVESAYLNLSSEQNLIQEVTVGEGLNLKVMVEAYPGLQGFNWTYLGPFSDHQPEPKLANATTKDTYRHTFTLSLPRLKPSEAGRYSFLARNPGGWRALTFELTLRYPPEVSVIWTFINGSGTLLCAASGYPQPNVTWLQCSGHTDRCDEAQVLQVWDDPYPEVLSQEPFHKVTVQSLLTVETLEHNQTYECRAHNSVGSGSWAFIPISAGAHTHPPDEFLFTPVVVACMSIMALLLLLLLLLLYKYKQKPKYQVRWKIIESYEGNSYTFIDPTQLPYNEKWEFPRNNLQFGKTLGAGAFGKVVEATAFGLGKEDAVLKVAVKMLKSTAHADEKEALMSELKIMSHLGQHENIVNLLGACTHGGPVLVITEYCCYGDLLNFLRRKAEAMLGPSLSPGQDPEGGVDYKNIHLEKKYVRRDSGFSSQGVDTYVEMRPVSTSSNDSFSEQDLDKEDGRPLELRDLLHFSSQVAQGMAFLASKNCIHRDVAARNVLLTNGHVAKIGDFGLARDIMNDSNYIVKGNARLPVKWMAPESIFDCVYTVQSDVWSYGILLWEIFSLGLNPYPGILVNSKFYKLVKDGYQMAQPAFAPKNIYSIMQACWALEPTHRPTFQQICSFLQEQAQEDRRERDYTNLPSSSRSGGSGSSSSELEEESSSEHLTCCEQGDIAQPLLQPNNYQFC

COLO 205 [6] = assay: Antitumor activity against human COLO 205 cells xenografted in athymic nude mouse model assessed as gross log cell kill at 7.5 mg/kg, ip administered once daily in presence of gemcitabine (Gemcitabine alone = 0.27%); type: functional
COLO 205 [7] = assay: Antitumor activity against human COLO 205 cells xenografted in athymic nude mouse model assessed as gross log cell kill at 4 mg/kg, ip administered once daily in presence of gemcitabine (Gemcitabine alone = 0.5%); type: functional
COLO 205 [8] = assay: Antitumor activity against human COLO 205 cells xenografted in athymic nude mouse model assessed as gross log cell kill at 40 mg/kg, ip administered twice daily in presence of gemcitabine (Gemcitabine alone = 0.5%); type: functional
COLO 205 [9] = assay: Antitumor activity against human COLO 205 cells xenografted in athymic nude mouse model assessed as gross log cell kill at 30 mg/kg, ip administered twice daily in presence of gemcitabine (Gemcitabine alone = 0.27%); type: functional
COLO 205 [10] = assay: Antitumor activity against human COLO 205 cells xenografted in athymic nude mouse model assessed as tumor growth delay by measuring test to control tumor ratio at 30 mg/kg, ip administered once daily in presence of gemcitabine (Gemcitabine alone = 3%); type: functional
COLO 205 [11] = assay: Antitumor activity against human COLO 205 cells xenografted in athymic nude mouse model assessed as potentiated tumor growth inhibition at 12 mg/kg, ip administered once daily in presence of gemcitabine relative to control; type: functional; conditions: read-out: TGI
COLO 205 [12] = assay: Antitumor activity against human COLO 205 cells xenografted in athymic nude mouse model assessed as tumor growth inhibition at 30 mg/kg, ip administered once daily in presence of gemcitabine (Gemcitabine alone = 40%); type: functional; conditions: read-out: TGI
COLO 205 [13] = assay: Antitumor activity against human COLO 205 cells xenografted in athymic nude mouse model assessed as gross log cell kill at 12 mg/kg, ip administered once daily in presence of gemcitabine (Gemcitabine alone = 0.5%); type: functional
HT-29 [14] = assay: Potentiation of camptothecin induced cytotoxicity in human HT-29 cells assessed as cell survival at 540 nM measured after 4 to 48 hrs by coulter counter method relative to camptothecin alone; type: functional; conditions: time 4-48 hrs, read-out: Activity
HT-29 [15] = assay: Induction of apoptosis in gemcitabine induced human HT-29 cells assessed as apoptotic cell death measured after 48 hrs by PI staining based flow cytometry analysis (reference value: 8.6%); type: functional
COLO 205 [16] = assay: Antitumor activity against human COLO 205 cells xenografted in athymic nude mouse model assessed as gross log cell kill at 24 mg/kg, ip administered twice daily in presence of gemcitabine (Gemcitabine alone = 0.5%); type: functional
HT-29 [17] = assay: Inhibition of gemcitabine induced cell cycle arrest in human HT-29 cells assessed as disappearance of cyclin B level at 360 nM measured after 24 hrs by immunoblot analysis relative to control; type: functional
[18] = target: Fibroblast growth factor receptor 3 (Homo sapiens, UniProt P22607); assay: Inhibition of FGFR3 (unknown origin)
Sequence of Fibroblast growth factor receptor 3 (P22607 whole entry): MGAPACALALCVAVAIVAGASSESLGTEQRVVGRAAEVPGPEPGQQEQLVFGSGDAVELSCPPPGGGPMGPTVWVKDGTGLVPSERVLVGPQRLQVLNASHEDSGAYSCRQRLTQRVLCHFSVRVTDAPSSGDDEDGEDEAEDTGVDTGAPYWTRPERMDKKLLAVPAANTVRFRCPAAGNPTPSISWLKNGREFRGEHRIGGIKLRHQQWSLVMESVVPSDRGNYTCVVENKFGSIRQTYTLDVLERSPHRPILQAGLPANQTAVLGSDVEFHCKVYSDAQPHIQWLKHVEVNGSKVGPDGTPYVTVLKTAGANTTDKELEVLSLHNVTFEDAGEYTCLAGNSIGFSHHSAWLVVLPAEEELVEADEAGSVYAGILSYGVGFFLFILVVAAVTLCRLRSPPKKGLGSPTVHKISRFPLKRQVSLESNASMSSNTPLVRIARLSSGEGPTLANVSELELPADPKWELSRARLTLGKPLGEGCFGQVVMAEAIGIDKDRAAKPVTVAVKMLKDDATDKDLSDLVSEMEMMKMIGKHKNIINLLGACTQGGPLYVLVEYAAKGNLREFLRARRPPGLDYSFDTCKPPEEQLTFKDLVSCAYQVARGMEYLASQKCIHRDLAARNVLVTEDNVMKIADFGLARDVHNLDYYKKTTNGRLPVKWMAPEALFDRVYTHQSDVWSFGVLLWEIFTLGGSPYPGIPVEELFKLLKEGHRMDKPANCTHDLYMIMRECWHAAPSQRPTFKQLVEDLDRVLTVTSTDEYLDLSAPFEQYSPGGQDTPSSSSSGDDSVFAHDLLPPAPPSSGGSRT

HT-29 [19] = assay: Cytotoxicity in human HT-29 cells assessed as cell survival at 360 nM measured after 4 to 48 hrs by coulter counter method relative to control; type: functional; conditions: time 4-48 hrs, read-out: Activity
COLO 205 [20] = assay: Antitumor activity against human COLO 205 cells xenografted in athymic nude mouse model assessed as potentiated tumor growth inhibition at 24 mg/kg, ip administered twice daily in presence of gemcitabine relative to control; type: functional; conditions: read-out: TGI
COLO 205 [21] = assay: Potentiation factor, ratio of IC50 for human COLO 205 cells to IC50 for human COLO 205 cells in presence of gemcitabine; type: functional
COLO 205 [22] = assay: Antitumor activity against human COLO 205 cells xenografted in athymic nude mouse model assessed as tumor growth delay by measuring test to control tumor ratio at 20 mg/kg, ip administered once daily in presence of gemcitabine (Gemcitabine alone= 8%); type: functional
COLO 205 [23] = assay: Antiproliferative activity against human COLO 205 cells deficit of p53 expression assessed as inhibition of cell growth measured after 96 hrs by MTT assay; type: functional, cell-based; conditions: COLO 205, 96 h
MDA-MB-231 [24] = assay: Potentiation factor, ratio of IC50 for human MDA-MB-231 cells to IC50 for human MDA-MB-231 cells in presence of SN-38; type: functional
[25] = Terminal half life in Sprague-Dawley rat at 4 mg/kg, iv administered as bolus dose by LCMS analysis; type: ADME, organism-based; conditions: in vivo, read-out: beta t1/2 (converted)
COLO 205 [26] = assay: Antitumor activity against human COLO 205 cells xenografted in athymic nude mouse model assessed as tumor growth delay by measuring test to control tumor ratio at 30 mg/kg, ip administered twice daily in presence of gemcitabine (Gemcitabine alone = 3%); type: functional
[27] = target: Proto-oncogene tyrosine-protein kinase receptor Ret (Homo sapiens, UniProt P07949); assay: Inhibition of Ret (unknown origin)
Sequence of Proto-oncogene tyrosine-protein kinase receptor Ret (P07949 whole entry): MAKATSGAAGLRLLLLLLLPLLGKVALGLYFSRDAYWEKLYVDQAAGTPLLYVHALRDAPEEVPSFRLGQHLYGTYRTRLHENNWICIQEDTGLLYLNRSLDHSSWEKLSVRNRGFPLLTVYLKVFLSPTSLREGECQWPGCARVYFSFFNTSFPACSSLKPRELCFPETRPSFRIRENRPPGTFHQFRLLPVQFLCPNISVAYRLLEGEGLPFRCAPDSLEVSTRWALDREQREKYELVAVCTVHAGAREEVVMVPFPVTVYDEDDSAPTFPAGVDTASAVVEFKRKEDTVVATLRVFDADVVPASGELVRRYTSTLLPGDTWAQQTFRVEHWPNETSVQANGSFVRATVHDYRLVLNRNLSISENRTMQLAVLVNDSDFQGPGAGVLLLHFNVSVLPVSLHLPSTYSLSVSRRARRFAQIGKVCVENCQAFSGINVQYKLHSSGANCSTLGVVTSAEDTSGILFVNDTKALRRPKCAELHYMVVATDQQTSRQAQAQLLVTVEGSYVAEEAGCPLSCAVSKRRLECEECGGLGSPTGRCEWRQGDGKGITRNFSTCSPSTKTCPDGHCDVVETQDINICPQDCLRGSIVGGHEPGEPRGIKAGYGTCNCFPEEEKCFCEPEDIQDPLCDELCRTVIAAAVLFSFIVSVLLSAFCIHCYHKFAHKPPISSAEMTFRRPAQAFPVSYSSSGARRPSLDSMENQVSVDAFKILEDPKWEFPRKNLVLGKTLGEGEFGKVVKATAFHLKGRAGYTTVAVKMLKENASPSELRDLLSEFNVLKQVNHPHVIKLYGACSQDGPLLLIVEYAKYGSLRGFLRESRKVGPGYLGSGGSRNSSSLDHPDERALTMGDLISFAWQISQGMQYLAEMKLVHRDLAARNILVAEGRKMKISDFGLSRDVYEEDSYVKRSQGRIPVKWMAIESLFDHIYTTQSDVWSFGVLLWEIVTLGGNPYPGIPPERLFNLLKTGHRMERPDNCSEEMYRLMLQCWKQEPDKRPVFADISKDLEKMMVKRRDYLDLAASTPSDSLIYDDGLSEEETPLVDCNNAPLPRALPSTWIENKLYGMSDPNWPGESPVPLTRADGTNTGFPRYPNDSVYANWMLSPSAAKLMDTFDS

[28] = AUC (0 to infinity) in nu/nu mouse at 20 mg/kg, ip by LCMS analysis; type: ADME, organism-based; conditions: in vivo
PC-3 = assay: Potentiation factor, ratio of IC50 for human PC-3 cells to IC50 for human PC-3 cells in presence of carboplatin; type: functional
HT-29 [29] = assay: Cytotoxicity in human HT-29 cells assessed as cell survival at 540 nM measured after 4 to 48 hrs by coulter counter method relative to control; type: functional; conditions: time 4-48 hrs, read-out: Activity
CA46 = assay: Inhibition of camptothecin induced DNA damage in p-53 mutated human CA46 cells assessed as G2 checkpoint abrogation at 0.001 to 1 uM measured after 16 hrs presence of nocodazole by dot blot assay; type: functional, cell-based; conditions: dose 0.001-1 µM
MDA-MB-231 [30] = assay: Potentiation factor, ratio of IC50 for human MDA-MB-231 cells to IC50 for human MDA-MB-231 cells in presence of doxorubicin; type: functional
[31] = Clearance in Sprague-Dawley rat plasma at 4 mg/kg, iv administered as bolus dose by LCMS analysis; type: ADME, organism-based
COLO 205 [32] = assay: Antitumor activity against human COLO 205 cells xenografted in athymic nude mouse model assessed as tumor growth inhibition at 7.5 mg/kg, ip administered twice daily in presence of gemcitabine (Gemcitabine alone = 40%); type: functional; conditions: read-out: TGI
HT-29 [33] = assay: Inhibition of gemcitabine induced cell cycle arrest in human HT-29 cells assessed as increase in G0-G1 cell population pretreated with gemcitabine followed by compound treatment and measured after 10 to 48 hrs by flow cytometry analysis; type: functional, cell-based; conditions: time 10-48 hrs

SMILES: Cn1cc(-c2[nH]c3cc(NC(=O)[C@H](N)C4CCCCC4)cc4c3c2C=NNC4=O)cn1
- LCK (COLO 205 [1]): 1.03
- LCK (COLO 205 [2]): 0.75
- LCK (COLO 205 [3]): 0.66
- inhibition (HT-29 [4]): Active
- IC50 [5]: 20 nM
- LCK (COLO 205 [6]): 0.52
- LCK (COLO 205 [7]): 0.5
- LCK (COLO 205 [8]): 1.25
- LCK (COLO 205 [9]): 0.89
- T/C (COLO 205 [10]): 7.25
- inhibition in vivo at 12 mg/kg (COLO 205 [11]): 23%
- inhibition in vivo at 30 mg/kg (COLO 205 [12]): 64%
- LCK (COLO 205 [13]): 0.53
- viability at 0.54 µM (HT-29 [14]): 78%
- Activity (HT-29 [15]): 78.6%
- LCK (COLO 205 [16]): 0.75
- inhibition at 0.36 µM (HT-29 [17]): 100%
- IC50 [18]: 47 nM
- viability at 0.36 µM (HT-29 [19]): 93%
- inhibition in vivo at 24 mg/kg (COLO 205 [20]): 55%
- PF50 (COLO 205 [21]): 11.3
- T/C (COLO 205 [22]): 12
- IC50 (COLO 205 [23]): 1300 nM
- PF50 (MDA-MB-231 [24]): 2.4
- half-life [25]: 2.9 h
- T/C (COLO 205 [26]): 9.75
- IC50 [27]: 80 nM
- AUC(0-inf) [28]: 2670 ng·h/mL
- PF50 (PC-3): 3.1
- viability at 0.54 µM (HT-29 [29]): 83%
- inhibition (CA46): Active
- PF50 (MDA-MB-231 [30]): 2.25
- clearance [31]: 11.8 mL/min/kg
- inhibition in vivo at 7.5 mg/kg (COLO 205 [32]): 70%
- inhibition (HT-29 [33]): Active
